The text below walks through data of PMC7576482, “Inhibitory Activity of Quercetin 3-O-Arabinofuranoside and 2-Oxopomolic Acid Derived from Malus domestica on Soluble Epoxide Hydrolase” (Molecules, 2020).

Structures are written as SMILES. Where “and” joins values, the source holds several entries; their conditions need not be identical. Equal entries are not always repeated.

Data set [1] has as its target T1, soluble epoxide hydrolase (sEH) (Homo sapiens, UniProt P34913).
T1 construct: purchased Cayman (Ann Arbor, MI, USA) 10011669
T1 sequence (P34913 1-555): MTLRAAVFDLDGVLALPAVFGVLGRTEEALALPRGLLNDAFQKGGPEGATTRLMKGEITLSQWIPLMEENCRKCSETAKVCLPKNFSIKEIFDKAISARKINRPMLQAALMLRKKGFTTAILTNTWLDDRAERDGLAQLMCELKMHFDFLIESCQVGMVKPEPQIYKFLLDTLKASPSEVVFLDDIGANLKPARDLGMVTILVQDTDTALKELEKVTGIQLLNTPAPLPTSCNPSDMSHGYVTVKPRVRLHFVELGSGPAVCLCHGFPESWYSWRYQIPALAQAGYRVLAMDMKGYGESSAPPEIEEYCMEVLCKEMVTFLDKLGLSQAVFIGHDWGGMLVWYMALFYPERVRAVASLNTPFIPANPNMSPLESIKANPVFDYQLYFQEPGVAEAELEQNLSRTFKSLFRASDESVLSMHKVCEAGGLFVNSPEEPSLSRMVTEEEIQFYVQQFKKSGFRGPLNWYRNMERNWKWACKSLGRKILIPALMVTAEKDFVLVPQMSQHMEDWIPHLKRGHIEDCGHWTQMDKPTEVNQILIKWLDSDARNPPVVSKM
Briefly: sEH enzyme kinetic study (Lineweaver-Burk and Dixon plots). Format: biochemical. The following applies: for Ki: Dixon plots, read-out: ki (inhibition constant); for Binding Mode: Lineweaver-Burk plots. Here is the method: The enzyme kinetic study was performed to find the binding position of the inhibitor into sEH. The initial velocity (v0) for the three different concentrations of inhibitors was calculated relative to the substrate concentrations (1.1, 1.5, 2.2, 3.1, 6.2, and 12.5 μM). The inverse of these concentrations and v0 values were used to construct Lineweaver-Burk plots.
As presented in Figure 2F–I and Table 1, the inhibition constant (ki) values were calculated by Dixon plots. Inhibitors 1–4 were calculated to be ki values ranging from 2.9 ± 0.8 μM to […]. Among them, inhibitor 4 had the strongest ki value of 2.9 ± 0.8 μM.
(§1) The assays were carried out at 37 °C in 0.025-M bis-tris-HCL buffer, pH 7.0, containing 0.1% Bovine Serum Albumin B. PHOME (~2.6 μM) was used as a substrate. The final volume of tests was […] in ~10 ng/mL sEH. The products were monitored at 330 nm of excitation and 465 nm emission for 40 min.

For data set [2], the target named is T1, soluble epoxide hydrolase (sEH). The data set can be described thus: sEH assay (PHOME substrate, fluorescence). The following applies: triplicated experiments; 37 °C, pH 7.0, PHOME substrate; read-out: IC50 Value, inhibitory activity on sEH. The class given is biochemical. Here is the method: The inhibitory activity of each concentration of compound was calculated based on the difference in enzyme products with and without the presence of the compound using Equation (1). […] To calculate the half-maximal inhibitory concentration of the inhibitors (IC50), inhibition rate values were fitted using Equation (2).
as §1
The inhibition rate was calculated according to the following equations:Inhibition effect rate (%) = [(ΔC − ΔS)/ΔC] × 100(1) where ΔC and ΔS represent the gap of control and inhibitor during reaction, respectively. y = y0 + [(a × x)/(b + x)](2) where “y0” is the point on the axis of ordinates, “a” denotes the difference between the maximum and minimum values, and “b” refers to the “x” value at 50%.

On the set-up of data set [3]: method as in PMID 19794443. To be noted: cited from earlier work.

On to `C[C@H]1[C@H](C)CC[C@]2(C(=O)O)CC[C@]3(C)C(=CC[C@@H]4[C@@]5(C)C[C@@H](O)[C@H](O)C(C)(C)[C@@H]5CC[C@]43C)[C@H]12` [Compound 3, corosolic acid], for which, in data set [1], the Ki turned out to be 34.6 µM and the “Binding Mode” value is “Noncompetitive”. In addition, the IC50 in data set [2] is 51.3 ± 4.9 µM.

For the compound `C[C@H]1[C@H](C)CC[C@]2(C(=O)O)CC[C@]3(C)C(=CC[C@@H]4[C@@]5(C)CC[C@H](O)C(C)(C)[C@@H]5CC[C@]43C)[C@H]12` [Compound 2, ursolic acid], in data set [1], the Ki was 38.5 µM and the “Binding Mode” value is reported as “Noncompetitive”. Besides, the IC50 in data set [2] was 84.5 ± 9.5 µM.

Turning to `C[C@@H]1CC[C@]2(C(=O)O)CC[C@]3(C)C(=CC[C@@H]4[C@@]5(C)CC(=O)[C@H](O)C(C)(C)[C@@H]5CC[C@]43C)[C@@H]2[C@]1(C)O` [Compound 4, 2-oxopomolic acid], in data set [1], the Ki was determined as 2.9 µM and the “Binding Mode” value is given as “Noncompetitive”. Also, in data set [2], the IC50 was < 50 µM and 11.4 µM.

For `O=C(O)CCCCCCCCCCCNC(=O)NC12CC3CC(CC(C3)C1)C2` [AUDA, 12-(3-adamantan-1-yl-ureido)dodecanoic acid], the solubility result in data set [3] is “low solubility”.

Turning to `O=c1c(OC2O[C@H](CO)[C@@H](O)[C@@H]2O)c(-c2ccc(O)c(O)c2)oc2cc(O)cc(O)c12` (stereo in doubt) [Compound 1, quercetin 3-O-arabinofuranoside], in data set [1], the inhibition constant Ki is 39.5 µM and the “Binding Mode” value is listed as “Mixed”. Besides, in data set [2], the IC50 is < 50 µM and 39.3 µM.
